# Results as given in US5132432A, “Chemically reactive pyrenyloxy sulfonic acid dyes” (Molecular Probes, Inc., priority 1989, dated 1992).
# Counter-ions that a name gives are not always drawn.
# Experiments:
# [1] = Solubility in water / aqueous solution; conditions: solubility of the reactive form of the dye; grade in words
# [2] = Comparison of spectral properties of reactive dyes, Table 1; format: physicochemical; conditions: for ε: at first maximum; for Abs Max: first maximum; for Emission Bandwidth / Emission Bandwidth [cm^-1]: full bandwidth at half peak height; for Quantum Yield: in aqueous solution, grade in words; for % Emission at 514 nm: percent of maximum emission at 514 nm
# Source text: A number of dyes have been proposed in the literature that can be excited and detected at wavelengths less than 500 nm. Several chemically reactive fluorophores that can be excited in the near ultraviolet and short wavelength visible region of the spectrum have been described. […] These proposed tracers are derived from naphthalene derivatives such as 5-dimethylaminonaphthalene-1-sulfonic acid (Dansyl) [Weber, Biochem. J. 41:145 (1952); Rinderknecht, Experientin 16:430 (1960)], 3-(isothiocyanato)naphthalene-1,5-disulfonic acid [Braunitzer, et al., Hoppe-Seyler's Z. Physiol. […] Chem. 358:505 (1977)], pyrene derivatives such as pyrene-1-butyric acid (PBA) [Malencik & Anderson, Biochemistry 11:3022 (1972)], 8-isothiocyanatopyrene-1,3,6-trisulfonic acid (IPTS) [Braunitzer,et al., Hoppe-Seyler's Z. Physiol. Chem. 354:1536 (1973)] and 8-hydroxypyrene-1,3,6-trisulfonyl chloride [Wolfbeis, Fresenies Z. Anal. Chem. 320:271 (1985)], stilbene derivatives such as 4-acetamido-4'-isothiocyanatostilbene-2,2'-disulfonic acid (SITS) [Cornelisse & Ploem, J. Histochem. Cytochem. 24:72 (1976)], and coumarin dyes such as 3-carboxy-7-hydroxycoumarin [Baker & Collis, J. Chem. Soc. 1949, S 12 (1949)], 7-hydroxy-4-methylumbelliferone-3-acetic acid (4-MUA) [Khalfan, et al., Biochem. J. 209:265 (1983)], 7-amino-4-methylcoumarin-3-acetic acid (AMCA) [Khalfan, et al., Histochem. J. 18:497 (1986)] and 7-diethylaminocoumarin [Staines, et al. (1988)].
# [3] = Quantum yield relative to quinine sulfate; format: physicochemical; conditions: in water
# Source text: An estimate of the quantum yield of the dyes relative to quinine sulfate (quantum yield=0.55 in 1N sulfuric acid) was obtained by integrating the emission spectrum of the dye excited at the same wavelength and optical density as the standard.
# [4] = Spectral properties (absorption/emission) of new pyrenyloxy sulfonic acid dyes, Table 4; format: physicochemical; conditions: 50 mM aqueous potassium phosphate buffer at pH 8.0; for Em Max: uncorrected
# Protocol: Stock solutions were prepared by accurately weighing and dissolving 5-10 mg samples of the compounds in 2.000 ml water. A 10 μl aliquot of the stock solution was diluted into 2.00 ml of 50 mM potassium phosphate buffer at pH 8.0. Absorbance solutions were prepared by further diluting 200 μl of the diluted stock solution to 2.000 ml with 50 mM potassium phosphate buffer at pH 8.0. Absorption data was collected on an IBM Model 9420 UV/Visible Spectrophotometer and extinction coefficients were determined by standard Beer's Law calculations.
# Uncorrected fluorescence data was obtained on a Perkin-Elmer Model 650-40 Fluorescence Spectrophotometer equipped with a Perkin-Elmer/Hitachi 057 X-Y Recorder using a ten- to twentyfold dilution of the absorbance solutions. Fluorescence of the pyrenyloxy sulfonic acid dyes was determined for the reactive dyes and for their conjugates with model compounds by dissolving the dye at a concentration above 1×10^-8M in an appropriate solvent such as water, methanol, ethanol, or dimethylsulfoxide and measurement of the fluorescence in a suitable instrument, such as a fluorescence spectrometer or fluorescence microscope or flow cytometer. Fluorescence could also be observed for the dyes in solution by visual inspection with illumination by a suitable source that emits light at wavelengths of less than 420 nm.
# [5] = background statement; cited from earlier work
# [6] = second (shorter-wavelength) maximum
# [7] = first (longer-wavelength) maximum
compound,measurement,setting,value
"Cc1c(CC(=O)O)c(=O)oc2cc(N)ccc12 [AMCA, 7-amino-4-methylcoumarin-3-acetic acid]",Water Solubility,[1],low
same,Em. Max.,[2],442 nm
same,ε,[2],15200 M⁻¹ cm⁻¹
same,Abs Max,[2],354 nm
same,Emission Bandwidth,[2],57 nm
same,Emission Bandwidth [cm^-1],[2],2858 cm⁻¹
same,Quantum Yield,[2],med.
same,% Emission at 514 nm,[2],12 % of max
"O=C(O)COc1cc(S(=O)(=O)[O-])c2ccc3c(S(=O)(=O)[O-])cc(S(=O)(=O)[O-])c4ccc1c2c43.[Na+].[Na+].[Na+] [Compound 2, 1,3,6-Trisulfo-8-pyrenyloxyacetic acid, trisodium salt]",Quantum Yield,[3],greater than 0.90
same,Emission Band-width,[4],52 nm
same,Emission at 514 nm,[4],5.8 % of max
same,Em Max,[4],430 nm
same,ε,[4]; at first maximum,27.0 10^3 M^-1 cm^-1
same,ε,[4]; at second maximum,19.8 10^3 M^-1 cm^-1
same,Abs Max,[4]; [6],374 nm
"NCCNC(=O)COc1cc(S(=O)(=O)O)c2ccc3c(S(=O)(=O)O)cc(S(=O)(=O)O)c4ccc1c2c43 [Compound 3, 1,3,6-Trisulfo-8-pyrenyloxyacetamido-1-(2-aminoethane), trisodium salt]",Emission Band-width,[4],50 nm
same,Emission at 514 nm,[4],4.9 % of max
same,Abs Max,[4]; [7],399 nm
"NCCCCCNC(=O)COc1cc(S(=O)(=O)O)c2ccc3c(S(=O)(=O)O)cc(S(=O)(=O)O)c4ccc1c2c43 [Compound 4, 1-(1,3,6-Trisulfo-8-pyrenloxyacetamido)-(5-aminopentane), trisodium salt]",Quantum Yield,[3],greater than 0.90
same,Emission Band-width,[4],50 nm
same,Emission at 514 nm,[4],3.9 % of max
same,Em Max,[4],422 nm
same,ε,[4]; at first maximum,27.6 10^3 M^-1 cm^-1
same,ε,[4]; at second maximum,22.8 10^3 M^-1 cm^-1
same,Abs Max,[4]; [6],377 nm
O=C(COc1cc(S(=O)(=O)O)c2ccc3c(S(=O)(=O)O)cc(S(=O)(=O)O)c4ccc1c2c43)NCCO [Compound 10],Emission Band-width,[4],50 nm
same,Emission at 514 nm,[4],3.3 % of max
same,Abs Max,[4]; [7],399 nm
same,Abs Max,[4]; [6],377 nm
"NNC(=O)COc1cc(S(=O)(=O)O)c2ccc3c(S(=O)(=O)O)cc(S(=O)(=O)O)c4ccc1c2c43 [Compound 11, 1,3,6-Trisulfo-8-pyrenyloxyacethydrazide, free sulfonic acid]",Emission Band-width,[4],51 nm
same,Abs Max,[4]; [7],399 nm
same,Abs Max,[4]; [6],377 nm
"N.N.N.NNC(=O)COc1cc(S(=O)(=O)O)c2ccc3c(S(=O)(=O)O)cc(S(=O)(=O)O)c4ccc1c2c43 [Compound 13, 1,3,6-Trisulfo-8-pyrenyloxyacethydrazide, triammonium salt]",Emission Band-width,[4],50 nm
same,Emission at 514 nm,[4],3.8 % of max
same,Abs Max,[4]; [7],399 nm
same,Abs Max,[4]; [6],376 nm
"CC(C)(C)OC(=O)N1CCC[C@H]1C(=O)NCCNC(=O)COc1cc(S(=O)(=O)[O-])c2ccc3c(S(=O)(=O)[O-])cc(S(=O)(=O)[O-])c4ccc1c2c43.[Na+].[Na+].[Na+] [Compound 14, N-(1,3,6-Trisulfo-8-pyrenyloxyacetyl)-N'-(N-t-butoxycarbonyl-L-prolyl)-1,2-ethanediamine, trisodium salt]",Quantum Yield,[3],greater than 0.90
same,Emission Band-width,[4],49 nm
same,Emission at 514 nm,[4],2.8 % of max
same,Em Max,[4],422 nm
same,Abs Max,[4]; [7],399 nm
CC(C)(C)OC(=O)N1CCC[C@H]1C(=O)NCCCCCNC(=O)COc1cc(S(=O)(=O)O)c2ccc3c(S(=O)(=O)O)cc(S(=O)(=O)O)c4ccc1c2c43 [Compound 15],Emission Band-width,[4],50 nm
same,Emission at 514 nm,[4],3.0 % of max
same,Abs Max,[4]; [7],399 nm
same,Abs Max,[4]; [6],377 nm
N#CCCCCCNC(=O)COc1cc(S(=O)(=O)O)c2ccc3c(S(=O)(=O)O)cc(S(=O)(=O)O)c4ccc1c2c43 [Compound 16],Emission Band-width,[4],49 nm
same,Emission at 514 nm,[4],3.0 % of max
same,Abs Max,[4]; [7],399 nm
same,Abs Max,[4]; [6],377 nm
C=CC(=O)NCCCCCNC(=O)COc1cc(S(=O)(=O)O)c2ccc3c(S(=O)(=O)O)cc(S(=O)(=O)O)c4ccc1c2c43 [Compound 19],Emission Band-width,[4],49 nm
same,Emission at 514 nm,[4],2.9 % of max
same,Abs Max,[4]; [7],399 nm
"[N-]=[N+]=Nc1ccc(C(=O)NCCCCCNC(=O)COc2cc(S(=O)(=O)[O-])c3ccc4c(S(=O)(=O)[O-])cc(S(=O)(=O)[O-])c5ccc2c3c54)cc1.[Na+].[Na+].[Na+] [Compound 20, N-(1,3,6-Trisulfo-8-pyrenyloxyacetyl)-N'-(4-azidobenzoyl)-1,5-pentanediamine, trisodium salt]",Emission Band-width,[4],50 nm
same,Emission at 514 nm,[4],3.5 % of max
same,Em Max,[4],424 nm
same,Abs Max,[4]; [7],400 nm
"COC(=O)COc1cc(OCC(=O)OC)c2ccc3c(S(=O)(=O)O)cc(S(=O)(=O)O)c4ccc1c2c43 [Compound 21, Dimethyl 1,3-disulfo-6-carboxymethoxy-8-pyrenyloxyacetic acid, disodium salt]",Emission Band-width,[4],55 nm
same,Emission at 514 nm,[4],13.0 % of max
same,Em Max,[4],447 nm
same,ε,[4]; at first maximum,24.5 10^3 M^-1 cm^-1
same,Abs Max,[4]; [7],396 nm
"CN(C)c1cccc2c(S(=O)(=O)O)cccc12 [Dansyl, 5-dimethylaminonaphthalene-1-sulfonic acid]",Water Solubility,[1],low
same,Em. Max.,[2],578 nm
same,ε,[2],4500 M⁻¹ cm⁻¹
same,Abs Max,[2],340 nm
same,Quantum Yield,[2],low
"O=S(=O)(O)c1cc(N=C=S)c2ccc3c(S(=O)(=O)O)cc(S(=O)(=O)O)c4ccc1c2c34 [IPTS, 8-isothiocyanatopyrene-1,3,6-trisulfonic acid]",Water Solubility,[1],high
same,Em. Max.,[2],458 nm
same,ε,[2],25600 M⁻¹ cm⁻¹
same,Abs Max,[2],373 nm
same,Emission Bandwidth,[2],78 nm
same,Emission Bandwidth [cm^-1],[2],3634 cm⁻¹
same,Quantum Yield,[2],low
same,% Emission at 514 nm,[2],38 % of max
"O=C(O)CCCc1ccc2ccc3cccc4ccc1c2c34 [PBA, pyrene-1-butyric acid]",Water Solubility,[1],low
same,Em. Max.,[2],377 nm
same,ε,[2],45100 M⁻¹ cm⁻¹
same,Abs Max,[2],341 nm
same,Quantum Yield,[2],low
same,% Emission at 514 nm,[2],2 % of max
Cc1c(CC(=O)ON2C(=O)CCC2=O)c(=O)oc2cc(N)ccc12 [succinimidyl ester of AMCA],aqueous solubility / lipophilicity,[5],quite lipophilic and insoluble in the aqueous solutions
